From patent US8852604B2, “Multiepitope vaccine for Her2/neu-associated cancers” (Pevion Biotech AG, priority 2009, dated 2014)
Read-outs that look alike come from different tables or passages of the source. No end group written: not given here.

What was measured:
physchem [1] = assay: physchem
[2] = Text: The polydispersity of a virosomal preparation is an indication for the homogeneity of the particle size in an aqueous solution, with lower polydispersity being associated with a greater degree of homogeneity of size over all virosomes present in the composition.
physchem [3] = assay: physchem; remark: listed apart in the source

With “YMPIWKFPDEEGASPESFDGDPASNTAPLQPRVLQGLPREYVNARHC [PEV609, YMPIWKFPDEEGAS PESFDGDPASNTAPLQP RVLQGLPREYVNARHC]” the solubility (physchem [1]) was 800 µg/mL and the “Stabilty(I)IRIV” value [2] was “limited”.

In the case of “RVLQGLPREYVNARHC [PEV602, RVLQGLPREYVNARHC]”, the solubility (physchem [1]) is reported as 500 µg/mL and the “Stabilty(I)IRIV” value [2] is reported as “limited”.

For “RVLQGLPREYVNARHSYMPIWKFPDEEGASPESFDGDPASNTAPLQPC [PEV608, RVLQGLPREYVNARHS YMPIWKFPDEEGAS PESFDGDPASNTAPLQPC]”, the solubility (physchem [1]) was 800 µg/mL and the “Stabilty(I)IRIV” value [2] was “limited”.

In the case of “PESFDGDPASNTAPLQPRVLQGLPREYVNARHSLPYMPIWKFPDEEGAC [PEV604]”, the solubility (physchem [3]) is reported as 500 to 1500 µg/mL, the solubility (physchem [1]) is reported as 800 µg/mL and the “Stabilty(I)IRIV” value [2] is reported as “limited”.

In the case of YMPIWKFPDEEGAC [PEV603, YMPIWKFPDEEGAC], the solubility (physchem [3]) is reported as 2000 to 3000 µg/mL, the solubility (physchem [1]) is reported as < 200 µg/mL and the “Stabilty(I)IRIV” value [2] is reported as “limited”.

In the case of “RVLQGLPREYVNARHSPESFDGDPASNTAPLQPYMPIWKFPDEEGAC [PEV607, RVLQGLPREYVNARHS PESFDGDPASNTAPLQP YMPIWKFPDEEGAC]”, the solubility (physchem [3]) is reported as 500 to 1500 µg/mL, the solubility (physchem [1]) is reported as 800 µg/mL and the “Stabilty(I)IRIV” value [2] is reported as “limited”.

For “YMPIWKFPDEEGASRVLQGLPREYVNARHSPESFDGDPASNTAPLQPC [PEV610, YMPIWKFPDEEGAS RVLQGLPREYVNARHS PESFDGDPASNTAPLQPC]”, the solubility (physchem [1]) was 800 µg/mL and the “Stabilty(I)IRIV” value [2] was “limited”.

For “PESFDGDPASNTAPLQPRVLQGLPREYVNARHSYMPIWKFPDEEGAC [PEV605, PESFDGDPASNTAPLQP RVLQGLPREYVNARHS YMPIWKFPDEEGAC]”, the solubility (physchem [1]) was 800 µg/mL and the “Stabilty(I)IRIV” value [2] was “limited”.

In the case of “PESFDGDPASNTAPLQPYMPIWKFPDEEGASRVLQGLPREYVNARHC [PEV606, PESFDGDPASNTAPLQP YMPIWKFPDEEGAS RVLQGLPREYVNARHC]”, the solubility (physchem [1]) is reported as 800 µg/mL and the “Stabilty(I)IRIV” value [2] is reported as “limited”.

For PESFDGDPASNTAPLQPGGGGGC [PEV601], the solubility (physchem [1]) was 2000 to 3000 µg/mL and the “Stabilty(I)IRIV” value [2] was “acceptable”.
